# Test results from PMC6446070, “Discovery of novel isoflavone derivatives as AChE/BuChE dual-targeted inhibitors: synthesis, biological evaluation and molecular modelling” (Journal of Enzyme Inhibition and Medicinal Chemistry, 2017).
# Read-outs that look alike come from different tables or passages of the source.
# What was measured:
# BuChE = molecular target: T1, BuChE (Homo sapiens, UniProt P06276); assay: biochemical; details: for inhibition at 50 µM: read-out: Inhibition % at 50 μM BuChE
# T1 construct: BuChE (3.4 U/mg) was obtained from human plasma; from tissue; host or cells: human plasma
# Description: (§1) To measure in vitro AChE/BuChE activity, modified Ellman's method[27–30] was performed using a 96-well plate reader (BioTek ELx808). AChE (0.5 U/mg) was extracted from rat cortex while BuChE (3.4 U/mg) was obtained from human plasma. Each well contained 50 μl potassium phosphate buffer (KH2PO4/K2HPO4, 0.1 M, pH 8.0), 25 μl test compounds and 25 μl enzyme. […] They were pre-incubated for 60 min at 37 °C, and then 125 μl 5,5′-dithiobis-2-nitrobenzoic acid (DNTB, 3 mM in buffer) was added. […] A control experiment was performed under the same condition without any inhibitor and the blank contained buffer, water, DTNB and substrate. The described method was also performed for BuChE bioassay.
# AChE = molecular target: T2, AChE (Rattus norvegicus, UniProt P37136); assay: biochemical; details: for inhibition at 50 µM: read-out: Inhibition % at 50 μM AChE
# T2 construct: AChE (0.5 U/mg) was extracted from rat cortex; from tissue; host or cells: rat cortex
# Description: as §1
# [1] = 50 μM compound, BuChE from human plasma, pre-incubated 60 min at 37 °C
# [2] = 50 μM compound, AChE extracted from rat cortex, pre-incubated 60 min at 37 °C
# [3] = BuChE from human plasma, read-out: IC50 (μM) BuChE
# T2 sequence (P37136 32-614): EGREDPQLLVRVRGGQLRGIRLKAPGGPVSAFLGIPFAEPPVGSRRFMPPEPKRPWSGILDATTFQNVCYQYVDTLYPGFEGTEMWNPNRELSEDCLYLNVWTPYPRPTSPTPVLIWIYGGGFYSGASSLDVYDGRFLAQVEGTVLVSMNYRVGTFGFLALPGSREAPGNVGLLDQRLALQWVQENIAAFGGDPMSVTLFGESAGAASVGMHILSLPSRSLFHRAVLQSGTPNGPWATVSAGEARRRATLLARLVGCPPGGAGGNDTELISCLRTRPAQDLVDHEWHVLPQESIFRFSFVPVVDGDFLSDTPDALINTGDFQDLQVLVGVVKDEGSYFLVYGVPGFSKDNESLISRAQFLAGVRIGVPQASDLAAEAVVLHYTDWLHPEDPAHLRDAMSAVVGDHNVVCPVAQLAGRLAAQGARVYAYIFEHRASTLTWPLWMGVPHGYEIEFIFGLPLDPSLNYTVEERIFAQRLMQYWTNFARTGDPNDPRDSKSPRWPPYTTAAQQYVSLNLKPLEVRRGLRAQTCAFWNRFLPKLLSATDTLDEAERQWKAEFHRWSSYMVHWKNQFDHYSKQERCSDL
# T1 sequence (P06276 29-602): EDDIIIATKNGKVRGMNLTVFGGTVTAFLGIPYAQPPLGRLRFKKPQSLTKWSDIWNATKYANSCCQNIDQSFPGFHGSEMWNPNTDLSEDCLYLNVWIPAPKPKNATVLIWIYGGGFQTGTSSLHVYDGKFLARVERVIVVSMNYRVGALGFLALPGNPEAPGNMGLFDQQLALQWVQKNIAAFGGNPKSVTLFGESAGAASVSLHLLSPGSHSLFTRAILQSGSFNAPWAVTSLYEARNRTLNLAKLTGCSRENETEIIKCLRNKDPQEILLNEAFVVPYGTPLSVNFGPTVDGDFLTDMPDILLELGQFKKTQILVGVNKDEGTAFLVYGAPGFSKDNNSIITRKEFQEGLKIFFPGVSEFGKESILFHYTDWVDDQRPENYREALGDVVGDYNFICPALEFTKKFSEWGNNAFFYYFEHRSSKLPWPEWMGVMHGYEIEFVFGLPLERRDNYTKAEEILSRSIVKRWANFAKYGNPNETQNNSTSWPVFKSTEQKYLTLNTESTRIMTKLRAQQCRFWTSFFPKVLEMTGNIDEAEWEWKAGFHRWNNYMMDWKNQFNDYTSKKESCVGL
Compound,inhibition at 50 µM (BuChE; [1]) [%],inhibition at 50 µM (AChE; [2]) [%],IC50 (BuChE; [3]) [µM],also measured
"CCN(C)CCCOc1ccc2c(=O)c(-c3ccc(OC)cc3)coc2c1 [compound 5, 7-(3-(Ethyl(methyl)amino)propoxy)-3-(4-methoxyphenyl)-4H-chromen-4-one]",91.3,25.4,,
"C#CCNCCOc1ccc2c(=O)c(-c3ccc(OC)cc3)coc2c1 [compound 12, 3-(4-Methoxyphenyl)-7-(2-(prop-2-yn-1-ylamino)ethoxy)-4H-chromen-4-one]",-16.9,5.47,,
"COc1ccc(-c2coc3cc(OCCCCNCCc4c[nH]c5ccc(OC)cc45)ccc3c2=O)cc1 [compound 9, 7-(4((2-(5-Methoxy-1H-indol-3-yl)ethyl)amino)butoxy)-3-(4-methoxyphenyl)-4H-chromen-4-one]",37.9,0.72,,
"CC(C)NP(=O)(NC(C)C)OP(=O)(NC(C)C)NC(C)C [Iso-OMPA, tetraisopropyl pyrophosphoramide, reference compound]",,,,inhibition at 50 µM (BuChE): 94.3%
"O=c1c(-c2ccc(O)cc2)coc2cc(OCCN3CCCCC3)ccc12 [compound 14, 3-(4-Hydroxyphenyl)-7-(2-(piperidin-1-yl)ethoxy)-4H-chromen-4-one]",99.9,79.4,7.66,IC50 (AChE; AChE extracted from rat cortex): 9.75 µM
"CCN(C)CCCCOc1ccc2c(=O)c(-c3ccc(OC)cc3)coc2c1 [compound 6, 7-(4-(Ethyl(methyl)amino)butoxy)-3-(4-methoxyphenyl)-4H-chromen-4-one]",94.8,63.8,,
"O=c1c(-c2ccc(OCCN3CCCCC3)cc2)coc2cc(OCCN3CCCCC3)ccc12 [compound 16, 7-(2-(Piperidin-1-yl)ethoxy)-3-(4-(2-(piperidin-1-yl)ethoxy)phenyl)-4H-chrom en-4-one]",99.7,100,5.92,IC50 (AChE; AChE extracted from rat cortex): 4.6 µM
"COc1ccc(-c2coc3cc(OCCCN4CCCCC4)ccc3c2=O)cc1 [compound 2, 3-(4-Methoxyphenyl)-7-(3-(piperidin-1-yl)propoxy)-4H-chromen-4-one]",97,28.3,23.2,
"COc1ccc(-c2coc3cc(OCCNC45CC6C[C@@](C)(C4)C[C@](C)(C6)C5)ccc3c2=O)cc1 [compound 13, 7-(2-(((3 R,5 S,7r)-3,5-dimethyladamantan-1-yl)amino)ethoxy)-3-(4-methoxyphenyl)-4H-chromen-4-one]",,,,Inhibition % at 50 μM BuChE (BuChE; [1]): −6.62%; Inhibition % at 50 μM AChE (AChE; [2]): 17.61%
"COc1ccc(-c2coc3cc(OCC(=O)N4CCCCC4)ccc3c2=O)cc1 [compound 17, 3-(4-Methoxyphenyl)-7-(2-oxo-2-(piperidin-1-yl)ethoxy)-4H-chromen4-one]",-2.83,0.54,,
"COc1ccc(-c2coc3cc(OCCN4CCCCC4)cc(O)c3c2=O)cc1 [compound 1, 5-Hydroxy-3-(4-mehtoxyphenyl)-7-(2-(piperidin-1-yl)ethoxy)-4H-chromen-4-one]",,,4.12,Inhibition % at 50 μM BuChE (BuChE; [1]): 95.74%; Inhibition % at 50 μM AChE (AChE; [2]): 71.10%; IC50 (AChE; AChE extracted from rat cortex): 10.3 µM
COc1ccc(-c2coc3cc(OCCN4CCCCC4C)ccc3c2=O)cc1 (stereo not shown) [G],,,3.37,IC50 (AChE; AChE extracted from rat cortex): 1.47 µM
"COc1ccc(-c2coc3cc(OCCN(Cc4ccccc4)Cc4ccccc4)ccc3c2=O)cc1 [compound 11, 7-(2-(Dibenzylamino)ethoxy)-3-(4-methoxyphenyl)-4H-chromen-4-one]",-18.5,-6.27,,
"O=c1c(-c2ccc(O)cc2)coc2cc(OCCN3CCCC3)ccc12 [compound 15, 3-(4-Hyroxyphenyl)-7-(2-(pyrrolidin-1-yl)ethoxy)-4H-chromen-4-one]",,,7.19,Inhibition % at 50 μM BuChE (BuChE; [1]): 99.88%; Inhibition % at 50 μM AChE (AChE; [2]): 75.22%
"COc1ccc(-c2coc3cc(OCCOC(=O)N4CCCCC4)ccc3c2=O)cc1 [compound 19, 2-((3-(4-Methoxyphenyl)-4-oxo-4H-chromen-7-yl)oxy)ethyl piperidine-1-carboxylate]",,,,IC50 (BuChE): 9.59 µM; inhibition at 50 µM (BuChE): 53%; inhibition at 50 µM (AChE): -11.6%
"COc1ccc(-c2coc3cc(OCCCNCCc4c[nH]c5ccc(OC)cc45)ccc3c2=O)cc1 [compound 8, 7-(3-((2-(5-Methoxy-1H-indol-3-yl)ethyl)amino)propoxy)-3-(4-methoxyphenyl)-4H-chromen-4-one]",60.6,2.42,15.6,
"C#CCNC(=O)OCCOc1ccc2c(=O)c(-c3ccc(OC)cc3)coc2c1 [compound 20, 2-((3-(4-Methoxyphenyl)-4-oxo-4H-chromen-7-yl)oxy)ethyl prop-2-yn-1-ylc-arbamate]",,,,Inhibition % at 50 μM BuChE (BuChE; [1]): −5.49%; Inhibition % at 50 μM AChE (AChE; [2]): −4.84%
"COc1ccc(-c2coc3cc(OCCC(=O)N4CCCCC4)ccc3c2=O)cc1 [compound 18, 3-(4-Methoxyphenyl)-7-(3-oxo-3-(piperidin-1-yl)propoxy)-4H-chromen-4-one]",5.59,-2.36,,
"COc1ccc(-c2coc3cc(OCCNCCc4c[nH]c5ccc(OC)cc45)ccc3c2=O)cc1 [compound 7, 7-(2-((2-(5-Methoxy-1H-indol-3-yl)ethyl)amino)ethoxy)-3-(4-methoxyphenyl)-4H-chr-omen-4-one]",,,,Inhibition % at 50 μM BuChE (BuChE; [1]): 45.74%; Inhibition % at 50 μM AChE (AChE; [2]): 3.68%
"COc1ccc(-c2coc3cc(OCCCCN4CCCCC4)ccc3c2=O)cc1 [compound 3, 3-(4-Methoxyphenyl)-7-(4-(piperidin-1-yl)butoxy)-4-H-chromen-4-one]",,,11.1,Inhibition % at 50 μM BuChE (BuChE; [1]): 98.11%; Inhibition % at 50 μM AChE (AChE; [2]): 85.65%; IC50 (AChE; AChE extracted from rat cortex): 46.4 µM
"CCN(C)CCOc1ccc2c(=O)c(-c3ccc(OC)cc3)coc2c1 [compound 4, 7-(2-(Ethyl(methyl)amino)ethoxy)-3-(4-methoxyphenyl)-4H-chromen-4-one]",84.1,58.7,,
"COc1ccc(-c2coc3cc(OCCN(C)Cc4ccccc4)ccc3c2=O)cc1 [compound 10, 7-(2-(Benzyl(methyl)amino)ethoxy)-3-(4-methoxyphenyl)-4H-chromen-4-one]",2.72,3.34,,
